# pIC50: −log10 of the molar value.
# Tested on: Blood
# Assay: Inhibition of LPS-induced TNFalpha production in human whole blood
# Type: functional, tissue-based
row,Compound,pIC50
1,Cc1ccc(C(=O)NC2CC2)cc1-c1ccc2c(N3CCCCC3)noc2c1,7.01
2,Cc1c(F)cc(C(=O)NC2CC2)cc1-c1ccn2c(C(C)(C)N)nnc2c1,6.75
3,Cc1c(F)cc(C(=O)NC2CC2)cc1-c1c(F)cn2c(C(C)C)nnc2c1F,6.33
4,Cc1c(F)cc(C(=O)NC2CC2)cc1-c1c(F)cn2c(C(C)(C)N(C)C)nnc2c1F,6.91
5,Cc1ccc(C(=O)NC2CC2)cc1-c1ccn2c(C3CCOCC3)nnc2c1,6.18
6,Cc1ccc(C(=O)NC2CC2)cc1-c1ccn2c(-c3ccncc3Cl)nnc2c1,6.52
7,Cc1c(F)cc(C(=O)NC2CC2)cc1-c1ccn2c(C3CCC3)nnc2c1,6.26
8,COC(C)(C)c1nnc2cc(-c3cc(C(=O)NC4CC4)cc(F)c3C)ccn12,6.56
9,Cc1c(F)cc(C(=O)NC2CC2)cc1-c1ccn2c(-c3ccccc3Cl)nnc2c1,8.14
10,Cc1ccc(C(=O)NC2CC2)cc1-c1ccn2c(C3CC3)nnc2c1,7.60

# Further compounds by rising pIC50, results first:
row,pIC50,Compound
1,5.74,Cc1c(F)cc(C(=O)NC2CC2)cc1-c1ccn2c(C(N)=O)nnc2c1
2,5.83,Cc1c(F)cc(C(=O)NC2CC2)cc1-c1c(F)cn2c(C3CC3)nnc2c1F
3,5.95,Cc1c(F)cc(C(=O)NC2CC2)cc1-c1ccn2c(C(C)(C)NS(C)(=O)=O)nnc2c1
4,5.98,COC(C)c1nnc2cc(-c3cc(C(=O)NC4CC4)ccc3C)ccn12 (configuration not stated)
5,6.29,Cc1ccc(C(=O)NC2CC2)cc1-c1c(F)cn2c(C(C)(C)C)nnc2c1F
6,6.59,COC(C)c1nnc2cc(-c3cc(C(=O)NC4CC4)cc(F)c3C)ccn12 (configuration not stated)
7,7.38,Cc1ccc(C(=O)NC2CC2)cc1-c1ccn2c(C(C)C)nnc2c1

# — ChEMBL document CHEMBL2086331, “Novel triazolopyridylbenzamides as potent and selective p38α inhibitors” (Bioorg Med Chem Lett, 2012)
